In brackets after ≈: the same amount, converted by molar mass. Where two headings read alike, the source gives them in different places.
What was measured:
Assay type in all cases: cell-based
MSSA = experiment: MIC against MSSA strain panel; conditions: Staphylococcus aureus, the 4th table
ATCC 29212 E. faecalis = experiment: MIC against ATCC 29212 E. faecalis
S. pneumoniae = experiment: MIC against S. pneumoniae strain panel; conditions: Streptococcus pneumoniae
Group A Strep = experiment: MIC against Group A Strep strain panel
Group B Strep = experiment: MIC against Group B Strep strain panel
E. coli = experiment: MIC against E. coli strains

Compound `CN[C@H](CC(C)C)C(=O)N[C@H]1C(=O)N[C@@H](CC(N)=O)C(=O)N[C@H]2C(=O)N[C@H]3C(=O)N[C@H](C(=O)N[C@H](C(=O)O)c4cc(O)cc(O)c4-c4cc3ccc4O)[C@H](O)c3ccc(c(Cl)c3)Oc3cc2cc(c3O[C@@H]2O[C@H](CO)[C@@H](O)[C@H](O)[C@H]2O[C@H]2C[C@](C)(N)[C@H](O)[C@H](C)O2)Oc2ccc(cc2Cl)[C@H]1O` [Vancomycin, vancomycin, reference compound] has an MIC (MSSA; VGP16-99 MSSA) of 1 µg/mL (≈ 0.69 µM), an MIC (MSSA; VGP16-100 MSSA) of 0.5 µg/mL (≈ 0.345 µM) and an MIC (MSSA; VGP16-101 MSSA) of 1 µg/mL (≈ 0.69 µM). It also gave an MIC (MSSA; VGP16-116 MSSA) of 0.5 µg/mL (≈ 0.345 µM), an MIC (MSSA; VGP16-117 MSSA) of 0.5 µg/mL (≈ 0.345 µM) and an MIC (ATCC 29212 E. faecalis; ATCC 29212 E. faecalis, the 6th table) of 2 µg/mL (≈ 1.38 µM). For the same compound, the MIC (ATCC 29212 E. faecalis; Enterococcus faecalis, ATCC29212) was 2 µg/mL (≈ 1.38 µM), the MIC (S. pneumoniae; ATCC49619, ATCC 49619 S. pneumoniae, CA-MHB w/5% LHB, the 4th table) was 0.25 µg/mL (≈ 0.173 µM) and the MIC (S. pneumoniae; ATCC49619, ATCC 49619 S. pneumoniae, the 7th table) was at most 0.125 µg/mL. It also gave an MIC (S. pneumoniae; CO314937 S. pneumoniae, CA-MHB w/5% LHB, the 4th table) of 0.25 µg/mL (≈ 0.173 µM), an MIC (S. pneumoniae; CT3-5008 S. pneumoniae, the 7th table) of 0.25 µg/mL (≈ 0.173 µM) and an MIC (S. pneumoniae; CT3-5803 S. pneumoniae, the 7th table) of 0.25 µg/mL (≈ 0.173 µM). The MIC (S. pneumoniae; CT3-8501 S. pneumoniae, the 7th table) was 0.25 µg/mL (≈ 0.173 µM), the MIC (S. pneumoniae; CT4-3048 S. pneumoniae, the 7th table) was 0.5 µg/mL (≈ 0.345 µM) and the MIC (S. pneumoniae; CT4-9046 S. pneumoniae, the 7th table) was 0.25 µg/mL (≈ 0.173 µM). It also gave an MIC (S. pneumoniae; CT4-9693 S. pneumoniae, the 7th table) of 0.25 µg/mL (≈ 0.173 µM), an MIC (S. pneumoniae; CT5-6541 S. pneumoniae, the 7th table) of 0.25 µg/mL (≈ 0.173 µM) and an MIC (S. pneumoniae; CT5-8032 S. pneumoniae, the 7th table) of 0.5 µg/mL (≈ 0.345 µM). It also gave an MIC (S. pneumoniae; CT5-9124 S. pneumoniae, the 7th table) of 0.25 µg/mL (≈ 0.173 µM), an MIC (S. pneumoniae; CT6-0670 S. pneumoniae, the 7th table) of 0.5 µg/mL (≈ 0.345 µM) and an MIC (S. pneumoniae; CT6-7691 S. pneumoniae, the 7th table) of 0.25 µg/mL (≈ 0.173 µM). The MIC (S. pneumoniae; CT0200-2241 S. pneumoniae, the 7th table) was 0.25 µg/mL (≈ 0.173 µM), the MIC (S. pneumoniae; CT0200-2730 S. pneumoniae, the 7th table) was 0.25 µg/mL (≈ 0.173 µM) and the MIC (S. pneumoniae; MD77773 S. pneumoniae, CA-MHB w/5% LHB, the 4th table) was 0.5 µg/mL (≈ 0.345 µM). The MIC (Group A Strep) was 0.25 µg/mL (≈ 0.173 µM), the MIC (Group A Strep; 2007-11 Group A Strep, the 8th table) was 0.25 µg/mL (≈ 0.173 µM) and the MIC (Group A Strep; 2007-28 Group A Strep, the 8th table) was 0.25 µg/mL (≈ 0.173 µM). The MIC (Group A Strep; 2007-49 Group A Strep, the 8th table) was 0.25 µg/mL (≈ 0.173 µM), the MIC (Group A Strep; 2007-73 Group A Strep, the 8th table) was 0.25 µg/mL (≈ 0.173 µM) and the MIC (Group A Strep; 2007-107 Group A Strep, the 8th table) was 0.25 µg/mL (≈ 0.173 µM). The MIC (Group A Strep; 2007-1101 Group A Strep, the 8th table) was 0.25 µg/mL (≈ 0.173 µM), the MIC (Group A Strep; 2008-06 Group A Strep, the 8th table) was 0.25 µg/mL (≈ 0.173 µM) and the MIC (Group A Strep; 2008-45 Group A Strep, the 8th table) was 0.25 µg/mL (≈ 0.173 µM). For the same compound, the MIC (Group A Strep; 2008-818 Group A Strep, CA-MHB w/5% LHB, the 4th table) was 0.25 µg/mL (≈ 0.173 µM), the MIC (Group A Strep; 2008-1565 Group A Strep, the 8th table) was 0.25 µg/mL (≈ 0.173 µM) and the MIC (Group A Strep; 2008-1692 Group A Strep, the 8th table) was 0.25 µg/mL (≈ 0.173 µM). For the same compound, the MIC (Group A Strep; 2009-8 Group A Strep, the 8th table) was 0.25 µg/mL (≈ 0.173 µM), the MIC (Group A Strep; 2009-37 Group A Strep, CA-MHB w/5% LHB, the 4th table) was 0.25 µg/mL (≈ 0.173 µM) and the MIC (Group A Strep; 2009-106 Group A Strep, the 8th table) was 0.25 µg/mL (≈ 0.173 µM). For the same compound, the MIC (Group A Strep; 2009-109 Group A Strep, the 8th table) was 0.25 µg/mL (≈ 0.173 µM), the MIC (Group A Strep; 2009-114 Group A Strep, the 8th table) was 0.25 µg/mL (≈ 0.173 µM) and the MIC (Group A Strep; 2009-136 Group A Strep, the 8th table) was 0.25 µg/mL (≈ 0.173 µM). The MIC (Group B Strep; 2008-57 Group B Strep, the 9th table) was 0.5 µg/mL (≈ 0.345 µM), the MIC (Group B Strep; 2008-70 Group B Strep, the 9th table) was 0.5 µg/mL (≈ 0.345 µM) and the MIC (Group B Strep; 2008-87 Group B Strep, CA-MHB w/5% LHB, the 4th table) was 0.5 µg/mL (≈ 0.345 µM). For the same compound, the MIC (Group B Strep; 2008-115 Group B Strep, the 9th table) was 0.5 µg/mL (≈ 0.345 µM), the MIC (Group B Strep; 2009-20 Group B Strep, the 9th table) was 0.5 µg/mL (≈ 0.345 µM) and the MIC (Group B Strep; 2009-40 Group B Strep, the 9th table) was 0.5 µg/mL (≈ 0.345 µM). The MIC (Group B Strep; 2009-43 Group B Strep, the 9th table) was 0.5 µg/mL (≈ 0.345 µM), the MIC (Group B Strep; 2009-51 Group B Strep, the 9th table) was 0.5 µg/mL (≈ 0.345 µM) and the MIC (Group B Strep; 2009-57 Group B Strep, the 9th table) was 0.5 µg/mL (≈ 0.345 µM). The MIC (Group B Strep; 2009-59 Group B Strep, the 9th table) was 0.5 µg/mL (≈ 0.345 µM), the MIC (Group B Strep; 2009-60 Group B Strep, the 9th table) was 0.5 µg/mL (≈ 0.345 µM) and the MIC (Group B Strep; 2009-61 Group B Strep, CA-MHB w/5% LHB, the 4th table) was 0.5 µg/mL (≈ 0.345 µM). The MIC (Group B Strep; 2009-62 Group B Strep, CA-MHB w/5% LHB, the 4th table) was 0.5 µg/mL (≈ 0.345 µM), the MIC (Group B Strep; J4182 Group B Strep, the 9th table) was 0.25 µg/mL (≈ 0.173 µM) and the MIC (Group B Strep; J4183 Group B Strep, the 9th table) was 0.5 µg/mL (≈ 0.345 µM). The MIC (Group B Strep; J4185 Group B Strep, the 9th table) was 0.5 µg/mL (≈ 0.345 µM), the MIC (Group B Strep; J4186 Group B Strep, the 9th table) was 0.5 µg/mL (≈ 0.345 µM) and the MIC (Group B Strep; J4222 Group B Strep, the 9th table) was 0.5 µg/mL (≈ 0.345 µM). The MIC (E. coli; AR-137 E. coli, the 4th table) was over 64 µg/mL, the MIC (E. coli; Escherichia coli) was over 64 µg/mL and the MIC (E. coli; Escherichia coli, ATCC25922) was over 64 µg/mL.

Source: patent publication US20250312258A1, “2,3-PYRROLIDINEDIONE CONJUGATES AND METHODS OF USING THEREOF” (North Carolina State University, priority 2022, published 2025)
